Source: patent publication US9226929B2, “Pharmaceutically active disubstituted triazine derivatives” (Bayer Intellectual Property GMBH, priority 2011, dated 2016)

Experiments:
[1] = target: T1, CDK6/CyclinD3 (Homo sapiens, UniProt Q00534); assay: Lance Ultra KinaSelect Assay, CDK6; format: biochemical; details: ATP 55 μM; read-out: CDK6 LANCE assay (activity range), IC50
T1 construct: purchased Carna
Protocol: (§1) 2. Measurement of half maximal inhibitory concentration to CDKs This protocol describes how the Lance Ultra KinaSelect Assay was performed to determine half maximal inhibitory concentration (1050) of compounds of general formula (I) and CDK/Cyclin complexes. The principle behind this enzymatic assay is based upon the phosphorylation of the ULight-Peptide Substrat. It is detected by using a specific
(§2) EU-labeled anti-phospho peptide antibody. The binding of the Eu-labeled anti-phospho peptide antibody to the phosphorylated ULight labeled peptide gives rise to a FRET-signal. Binding of an inhibitor to the kinase prevents phosphorylation of the ULight-MBP Substrat, resulting in a loss of FRET.
(§3) The compounds of general formula (I) summarized in Table 5 were diluted from a 10 mM DMSO stock solution 1:10 in a total volume of 15 μL DMSO. This compound predilution was then serial diluted 1:3 over 8 steps in DMSO and briefly spun down. Each compound solution was now diluted 1:20 in Enzymatic Buffer (HEPES: 50 mM, pH: 7.5; MgCl2: 10 mM; EGTA: 1 mM; DTT: 2 mM; Tween-20: 0.01%), mixed thoroughly and spun down. For every sample, 2 μL of the diluted compound were mixed with 6 μL CDK/Cyclin/Substrat solution and 2 μL ATP solution in a well of a small volume 384 well plate (Corning Incorporated, Corning, N.Y., USA; order no. 3673). The CDK/Cyclin was diluted to the appropriate concentration (see Table 3) and the ATP concentration was adjusted to its […] for the CDK/Cyclin, which was 3 μM for CDK2/Cyclin A, 20 μM for CDK1/Cyclin B1, 25 μM for CDK7/Cyclin H and CDK9/Cyclin T1, 55 μM for CDK6/Cyclin D3, 90 μM for CDK4/Cyclin D1 and 125 μM for CDK9/Cyclin K. For negative controls, in each well 2 μL of DMSO solution (1% final DMSO assay concentration) was mixed with 6 μL substrate solution (50 nM ULight MBP final assay concentration) and 2 μL ATP solution (appropriate final concentration see Table 3). For positive controls, in each well 2 μL of DMSO solution (1% final DMSO assay concentration) was mixed with 6 μL CDK/Cyclin/Substrat (appropriate final concentration see Table 3) and 2 μL Tracer ATP solution (appropriate final concentration see Table 3). Positive and negative controls were calculated from at least 8 different sample wells. The 384 well plates were mixed in a Teleshaker plate mixer (Beckman Coulter, Brea, Calif., USA) at 2000 rpm for 40 sec, and incubated for 1 h at room temperature. Before reading, 10 μL the detection buffer (Lance Detection Buffer 1×; EDTA: […]; Eu-Anti-P-MBP: see Table 3) was added. The FRET signal was measured at 340 nm excitation, 665 nm and 615 nm emission (for the kinase tracer and LanthaScreen Eu-AB, respectively) with an Envision spectrophotometer (Perkin Elmer, Waltham, Mass., USA) with 50 μs delay and 300 μs integration time. IC50 values were determined from the sigmoidal dose response curves with the software Quattro Workflow (Quattro GmbH, Munich, Germany).

[2] = target: T2, CDK1/CyclinB1 (Homo sapiens, UniProt P06493); assay: Lance Ultra KinaSelect Assay, CDK1; format: biochemical; details: ATP 20 μM; read-out: CDK1 LANCE assay (activity range), IC50
T2 construct: purchased Carna
T2 sequence (P06493 whole entry): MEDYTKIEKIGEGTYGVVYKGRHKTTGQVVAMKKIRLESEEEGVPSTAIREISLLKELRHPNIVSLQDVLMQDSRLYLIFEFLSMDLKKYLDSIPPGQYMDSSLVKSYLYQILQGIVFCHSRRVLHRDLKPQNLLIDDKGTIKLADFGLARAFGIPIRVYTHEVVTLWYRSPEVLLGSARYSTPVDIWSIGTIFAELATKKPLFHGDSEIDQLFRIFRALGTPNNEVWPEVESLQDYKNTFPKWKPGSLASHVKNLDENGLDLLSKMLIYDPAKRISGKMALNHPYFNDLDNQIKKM
T2 sequence (P14635 whole entry partner): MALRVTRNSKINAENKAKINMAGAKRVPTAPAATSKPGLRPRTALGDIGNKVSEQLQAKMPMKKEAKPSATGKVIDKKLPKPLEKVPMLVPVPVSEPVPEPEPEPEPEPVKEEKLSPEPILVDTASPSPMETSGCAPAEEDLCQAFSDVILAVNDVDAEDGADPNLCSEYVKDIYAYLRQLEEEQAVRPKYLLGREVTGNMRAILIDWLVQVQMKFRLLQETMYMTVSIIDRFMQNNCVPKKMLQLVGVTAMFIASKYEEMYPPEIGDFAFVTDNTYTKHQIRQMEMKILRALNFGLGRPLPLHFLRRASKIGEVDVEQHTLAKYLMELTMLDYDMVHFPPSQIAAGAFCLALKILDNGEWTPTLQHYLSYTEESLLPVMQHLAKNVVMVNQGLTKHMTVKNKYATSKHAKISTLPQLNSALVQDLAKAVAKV
Protocol: as §1, §2, §3

[3] = target: T3, CDK2/CyclinA (Homo sapiens, UniProt P24941); assay: Lance Ultra KinaSelect Assay, CDK2; format: biochemical; details: ATP 3 μM; read-out: CDK2 LANCE assay (activity range), IC50
T3 construct: GST; purchased Proqinase
Protocol: as §1, §2, §3

[4] = target: T4, CDK7/CyclinH/MAT1 (Homo sapiens, UniProt P50613); assay: Lance Ultra KinaSelect Assay, CDK7; format: biochemical; details: ATP 25 μM; read-out: CDK7 LANCE assay (activity range), IC50
T4 construct: His; purchased Carna Biosciences
T4 sequence (P50613 whole entry): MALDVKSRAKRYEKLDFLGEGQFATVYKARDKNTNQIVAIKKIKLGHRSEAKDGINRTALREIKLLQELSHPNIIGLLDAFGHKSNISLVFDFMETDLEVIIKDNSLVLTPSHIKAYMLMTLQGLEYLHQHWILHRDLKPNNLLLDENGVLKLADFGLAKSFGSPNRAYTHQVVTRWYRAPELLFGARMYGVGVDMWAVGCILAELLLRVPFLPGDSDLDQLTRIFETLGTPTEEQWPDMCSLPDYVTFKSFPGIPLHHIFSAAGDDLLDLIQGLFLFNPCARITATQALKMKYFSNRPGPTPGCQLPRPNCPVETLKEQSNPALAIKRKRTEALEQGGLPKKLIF
T4 sequence (P51946 whole entry partner): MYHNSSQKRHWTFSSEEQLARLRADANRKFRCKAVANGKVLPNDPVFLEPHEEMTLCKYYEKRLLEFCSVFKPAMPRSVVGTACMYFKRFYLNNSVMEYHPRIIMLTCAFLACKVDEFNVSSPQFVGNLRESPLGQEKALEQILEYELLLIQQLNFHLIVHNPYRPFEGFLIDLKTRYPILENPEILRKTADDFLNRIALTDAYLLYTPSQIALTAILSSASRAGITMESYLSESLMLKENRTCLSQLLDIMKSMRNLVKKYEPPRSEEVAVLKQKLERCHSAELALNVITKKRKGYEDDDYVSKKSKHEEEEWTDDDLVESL
T4 sequence (P51948 whole entry partner): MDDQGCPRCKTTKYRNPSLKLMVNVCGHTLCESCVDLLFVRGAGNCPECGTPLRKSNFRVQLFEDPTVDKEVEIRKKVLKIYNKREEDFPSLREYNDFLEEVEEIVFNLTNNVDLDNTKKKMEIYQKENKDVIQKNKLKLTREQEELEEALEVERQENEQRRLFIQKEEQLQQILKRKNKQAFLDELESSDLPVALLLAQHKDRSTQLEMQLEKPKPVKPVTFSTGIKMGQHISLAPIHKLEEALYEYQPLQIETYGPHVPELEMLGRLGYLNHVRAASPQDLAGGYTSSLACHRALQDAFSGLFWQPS
Protocol: as §1, §2, §3

[5] = target: T5, CDK9 (Homo sapiens, UniProt P50750); assay: Lance Ultra KinaSelect Assay, CDK9; format: biochemical; details: cyclin partner (T1 or K) not stated; read-out: CDK9 LANCE assay (activity range), IC50
T5 construct: purchased Invitrogen
T5 sequence (P50750 whole entry): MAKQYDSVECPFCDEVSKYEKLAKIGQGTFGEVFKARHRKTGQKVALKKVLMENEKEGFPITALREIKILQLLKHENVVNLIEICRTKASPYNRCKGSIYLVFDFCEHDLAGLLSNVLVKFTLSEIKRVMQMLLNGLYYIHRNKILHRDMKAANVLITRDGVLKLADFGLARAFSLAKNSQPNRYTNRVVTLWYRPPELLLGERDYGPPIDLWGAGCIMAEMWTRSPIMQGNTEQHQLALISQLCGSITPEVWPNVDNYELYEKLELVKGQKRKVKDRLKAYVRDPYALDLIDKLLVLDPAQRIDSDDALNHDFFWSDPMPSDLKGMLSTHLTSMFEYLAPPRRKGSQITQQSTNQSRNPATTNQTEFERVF
Protocol: as §1, §2, §3

[6] = test system: Hela cells; assay: Cell Viability Assay, Hela cells; format: cell-based; details: Homo sapiens, 72 h, Cell Titer Glo, read-out: Cell Viability - Hela cells (activity range), IC50
Protocol: (§4) 3.4 Cell Viability Assays
(§5) Hela- or MDAMB468-Cells were maintained in RPMI 1640 or McCoy's 5A cell culture medium+glutamine (PAN Biotech GmbH, Aidenbach, Germany; order no. PO4-22100; PO4-05500) supplemented with 10% fetal calf serum “Gold” (PAA Laboratories GmbH, Pasching, Austria; order no. A15-151) and grown at 37° C., 5% CO2. For the cell viability assay, cells were seeded with a density of 400 (Hela cells, DSMZ Braunschweig order no. ACC57) or 800 (MDAMB468 cells, ATCC order no. HTB-132) per well in 25 μL in 384-well plates (Greiner Bio-One, Frickenhausen, Germany; order no. 781080). After overnight incubation at 37° C./5% CO2, 25 nL or 75 nL compound were added to each sample well by using BIOMEK FXP Laboratory Automation Workstation (Beckman Coulter, USA). Wells with cells and 0.1% or 0,3% DMSO in culture medium were used as positive controls, wells with cells and 10 μM staurosporine in culture medium were used as negative controls. The cells were incubated with the compounds for 72 h at 37° C./5% CO2. For measurement of cell viability 25 μL Cell Titer Glo reagent (Promega, Madison, USA; order no. G7573), 1:2 diluted with cell culture medium, was added to each well. The 384we11-plates were placed for 2 min on a orbital microplate shaker and incubated for further 10 min at room temperature to stabilize the luminescence signal.
(§6) Luminescence was measured by Envision Plate Reader (Perkin Elmer, USA). IC50 values were calculated with the software Excel Fit (IDBS, Guildford, UK) from 3-fold dilution series comprising at least 8 concentrations in duplicates.

[7] = test system: MDAMB468 cells; assay: Cell Viability Assay, MDAMB468 cells; format: cell-based; details: Homo sapiens, MDA-MB-468; 72 h, Cell Titer Glo; read-out: Cell Viability - MDAMB468 cells (activity range), IC50
Protocol: as §4, §5, §6

T1 sequence (Q00534 whole entry): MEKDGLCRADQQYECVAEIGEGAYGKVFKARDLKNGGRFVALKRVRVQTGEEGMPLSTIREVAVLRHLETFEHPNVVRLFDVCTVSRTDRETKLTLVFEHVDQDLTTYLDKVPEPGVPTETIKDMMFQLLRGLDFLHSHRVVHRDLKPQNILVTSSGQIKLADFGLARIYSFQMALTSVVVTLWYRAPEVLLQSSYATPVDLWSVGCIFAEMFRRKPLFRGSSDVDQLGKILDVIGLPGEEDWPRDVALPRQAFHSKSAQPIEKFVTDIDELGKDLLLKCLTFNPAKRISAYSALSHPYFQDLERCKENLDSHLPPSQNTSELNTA
T1 sequence (P30281 whole entry partner): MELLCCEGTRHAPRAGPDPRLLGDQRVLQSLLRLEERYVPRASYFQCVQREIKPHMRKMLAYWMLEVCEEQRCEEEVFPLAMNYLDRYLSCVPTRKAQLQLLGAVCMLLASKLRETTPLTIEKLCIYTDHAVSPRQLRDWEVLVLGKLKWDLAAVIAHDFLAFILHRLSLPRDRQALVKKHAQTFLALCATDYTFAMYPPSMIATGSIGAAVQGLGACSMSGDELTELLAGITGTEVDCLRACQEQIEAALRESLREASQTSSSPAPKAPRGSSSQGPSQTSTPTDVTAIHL

IC50 [1] [µM] | IC50 [2] [µM] | IC50 [3] [µM] | IC50 [4] [µM] | IC50 [5] [µM] | IC50 [6] [µM] | IC50 [7] [µM] | SMILES
– | – | < 0.1 | 1 to 10 | < 0.1 | 1 to 10 | 1 to 10 | NS(=O)(=O)Cc1cccc(Nc2ncnc(N3CCc4ncsc4C3)n2)c1 [Compound B45, 3-[(4-(6,7-Dihydrothiazolo[5,4-c]pyridin-5(4H)-yl)-1,3,5-triazin-2-yl)amino]benzenemethanesulfonamide]
> 10 | 0.1 to 1 | 0.1 to 1 | > 10 | < 0.1 | – | – | NS(=O)(=O)Cc1cccc(Nc2ncnc(N3CCc4ncccc4C3)n2)c1 [Compound B38, 3-[(4-(7,8-Dihydro-1,6-naphthyridin-6(5H)-yl)-1,3,5-triazin-2-yl)amino]-benzenemethanesulfonamide]
– | – | – | – | < 0.1 | > 10 | > 10 | NS(=O)(=O)Cc1cccc(Nc2ncnc(N3CCc4nc[nH]c4C3)n2)c1 [Compound B44, 3-[(4-(6,7-Dihydro-3H-imidazo[4,5-c]pyridin-5(4H)-yl)-1,3,5-triazin-2-yl)amino]benzenemethanesulfonamide]

The remaining lines, values behind:

SMILES | IC50 [1] [µM] | IC50 [2] [µM] | IC50 [3] [µM] | IC50 [4] [µM] | IC50 [5] [µM] | IC50 [6] [µM] | IC50 [7] [µM]
NS(=O)(=O)Cc1cccc(Nc2ncnc(N3CCCCC3)n2)c1 [Compound B1, 3-[(4-(Piperidin-1-yl)-1,3,5-triazin-2-yl)amino]benzenemethane sulfonamide] | > 10 | > 10 | > 10 | > 10 | 1 to 10 | – | –
NS(=O)(=O)Cc1cccc(Nc2ncnc(N3CCCn4nccc43)n2)c1 [Compound B47, 3-[(4-(6,7-Dihydropyrazolo[1,5-a]pyrimidin-4(5H)-yl)-1,3,5-triazin-2-yl)amino]benzenemethanesulfonamide] | 1 to 10 | 0.1 to 1 | < 0.1 | 1 to 10 | < 0.1 | – | –
COC[C@H]1CCCN1c1ncnc(Nc2cccc(CS(N)(=O)=O)c2)n1 [Compound B17, (R)-3-[(4-(2-(Methoxymethyl)pyrrolidin-1-yl)-1,3,5-triazin-2-yl)amino]benzenemethanesulfonamide] | > 10 | 1 to 10 | 1 to 10 | > 10 | 0.1 to 1 | – | –
NS(=O)(=O)Cc1cccc(Nc2ncnc(N3CCCC3c3ccccc3)n2)c1 (racemic) [Compound B33, rac-3-[(4-(2-Phenylpyrrolidin-1-yl)-1,3,5-triazin-2-yl)amino]-benzenemethanesulfonamide] | > 10 | 1 to 10 | > 10 | > 10 | 0.1 to 1 | – | –
COC(=O)[C@H]1CCCN1c1ncnc(Nc2cccc(CS(N)(=O)=O)c2)n1 [Compound B21, (R)-Methyl 1-[4-((3-(Sulfamoylmethyl)phenyl)amino)-1,3,5-triazin-2-yl]pyrrolidine-2-carboxylate] | – | – | – | – | 0.1 to 1 | – | –
NS(=O)(=O)Cc1cccc(Nc2ncnc(N3Cc4cn[nH]c4C3)n2)c1 [Compound B51, 3-[(4-(Pyrrolo[3,4-c]pyrazol-5(1H,4H,6H)-yl)-1,3,5-triazin-2-yl)amino]-benzenemethanesulfonamide] | > 10 | 1 to 10 | 0.1 to 1 | > 10 | < 0.1 | > 10 | > 10
